Source: patent US20170226120A1, “INHIBITORS OF HIF PROLYL HYDROXYLASE” (MERCK SHARP & DOHME CORP., priority 2014, published 2017)
Like-named read-outs stand apart in the source and are kept apart here.

Tests used:
[1] = Tissue PK profile in rat (liver and plasma drug level); assay type: in vivo; conditions: 10 mg/kg; for concentration at 4 h: po; for Kp at 4 h: liver/plasma, read-out: liver/plasma ratio
Experimental: The tissue PK profile of compounds described in this application were evaluated in rat. The tissue was harvested 4 hours after PO dosing at 10 mpk (vehicle: 0.5% MC; dose volume: 5 mL/Kg) and the drug level was determined. Shown in Table 1 are compound concentrations of selected examples in rat liver and plasma, as well as liver to plasma drug ratio.

[2] = target: T1, human HIF-PHD2 (Homo sapiens, UniProt Q9GZT9); assay: HIF-PHD2 inhibition, time resolved fluorescence assay of HIF-1α peptide hydroxylation; assay type: biochemical; conditions: FLAG-tagged full length PHD2; 0.2 μM 2-oxoglutarate, 0.5 μM HIF-1α peptide
T1 construct: FLAG-tagged full length PHD2 expressed in and purified from baculovirus-infected Sf9 cells; FLAG; made in house; host or cells: baculovirus-infected Sf9 cells
T1 sequence (Q9GZT9 whole entry): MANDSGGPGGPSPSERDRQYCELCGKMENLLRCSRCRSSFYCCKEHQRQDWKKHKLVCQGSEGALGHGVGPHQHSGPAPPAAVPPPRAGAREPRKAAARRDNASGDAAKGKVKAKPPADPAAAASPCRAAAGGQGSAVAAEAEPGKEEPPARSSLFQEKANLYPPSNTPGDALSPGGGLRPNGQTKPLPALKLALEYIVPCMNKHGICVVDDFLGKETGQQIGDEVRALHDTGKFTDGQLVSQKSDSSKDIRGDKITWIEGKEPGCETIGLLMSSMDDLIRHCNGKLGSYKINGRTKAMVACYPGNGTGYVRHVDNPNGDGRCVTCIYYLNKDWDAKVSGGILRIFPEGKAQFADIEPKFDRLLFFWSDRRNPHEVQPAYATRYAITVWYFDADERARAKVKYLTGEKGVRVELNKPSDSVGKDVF
Experimental: To each well of a 384-well plate, 1 μL of test compounds in DMSO (final concentration ranging from 0.3 nM to 10 uM) were added into 20 μl of assay buffer (50 mM Tris pH 7.4/0.01% Tween-20/0.1 mg/ml bovine serum albumin/10 μM ferrous sulfate/1 mM sodium ascorbate/20 μg/ml catalase) containing 0.15 μg/ml FLAG-tagged full length PHD2 expressed in and purified from baculovirus-infected Sf9 cells. After a 5 min preincubation at room temperature, the enzymatic reactions were initiated by the addition of 4 μL of substrates {final concentrations of 0.2 μM 2-oxoglutarate and 0.5 μM HIF-1α peptide biotinyl-[…] […] After incubation for 45 minutes at room temperature, the reactions were terminated by the addition of a 25 μL quench/detection mix to a final concentration of 1 mM ortho-phenanthroline, 0.1 mM EDTA, 0.5 nM anti-(His)6 LANCE reagent (Perkin-Elmer Life Sciences), 100 nM AF647-labeled streptavidin (Invitrogen), and 2 μg/ml (His)6-VHL complex {S. Tan Protein Expr. Purif.

[3] = 4 hours after PO dosing at 10 mpk, vehicle 0.5% MC
[4] = liver, 4 hours after PO dosing at 10 mpk, vehicle 0.5% MC, read-out: liver concentration
[5] = plasma, 4 hours after PO dosing at 10 mpk, vehicle 0.5% MC, read-out: plasma concentration

Row | Structure (SMILES) | concentration at 4 h ([1]; in vivo, liver concentration) [nM] | concentration at 4 h ([1]; in vivo, plasma concentration) [nM] | Kp at 4 h [1, 3] | concentration at 4 h [1, 4] [nM] | concentration at 4 h [1, 5] [nM] | IC50 [2] [nM]
1 | CC(C)(O)c1ccc(Cn2c3c(c(O)c(C(=O)NCC(=O)O)c2=O)COC3)cc1 [Example 5, 2-(4-Hydroxy-1-(4-(2-hydroxypropan-2-yl)benzyl)-2-oxo-1,2,5,7-tetrahydrofuro[3,4-b]pyridine-3-carboxamido)acetic acid] | 5600 | 26.7 | 214 | – | – | –
2 | N#Cc1ccc(Cn2c3c(c(O)c(C(=O)NCC(=O)O)c2=O)COC3)cc1 [Example 6, 2-(1-(4-Cyanobenzyl)-4-hydroxy-2-oxo-1,2,5,7-tetrahydrofuro[3,4-b]pyridine-3-carboxamido)acetic acid] | – | – | 17.9 | 1820 | 123 | 3.1
3 | O=C(O)CNC(=O)c1c(O)c2c(n(Cc3ncc(C(F)(F)F)cn3)c1=O)COC2 [Example 9, 2-(4-hydroxy-2-oxo-1-((5-(trifluoromethyl)pyrimidin-2-yl)methyl)-1,2,5,7-tetrahydrofuro[3,4-b]pyridine-3-carboxamido)acetic acid] | 1810 | 37.6 | 43.6 | – | – | –
4 | O=C(O)CNC(=O)c1c(O)c2c(n(Cc3cnc(C(F)(F)F)cn3)c1=O)COC2 [Example 11, 2-(4-hydroxy-2-oxo-1-((5-(trifluoromethyl)pyrazin-2-yl)methyl)-1,2,5,7-tetrahydrofuro[3,4-b]pyridine-3-carboxamido)acetic acid] | 7900 | 22 | 359 | – | – | –
5 | O=C(O)CNC(=O)c1c(O)c2c(n(Cc3cnc(C(F)(F)F)nc3)c1=O)COC2 [Example 12, 2-(4-hydroxy-2-oxo-1-((2-(trifluoromethyl)pyrimidin-5-yl)methyl)-1,2,5,7-tctrahydrofuro[3,4-b]pyridine-3-carboxamido)acetic acid] | 775 | 12.3 | 67.3 | – | – | –
6 | O=C(O)CNC(=O)c1c(O)c2c(n(Cc3cnc(C(F)(F)F)s3)c1=O)COC2 [Example 18, 2-(4-hydroxy-2-oxo-1-((2-(trifluoromethyl)thiazol-5-yl)methyl)-1,2,5,7-tetrahydrofuro[3,4-b]pyridine-3-carboxamido)acetic acid] | 11800 | 55.9 | 258 | – | – | –
7 | O=C(O)CNC(=O)c1c(O)c2c(n(Cc3nc(C(F)(F)F)cs3)c1=O)COC2 [Example 21, 2-(4-hydroxy-2-oxo-1-((4-(trifluoromethyl)thiazol-2-yl)methyl)-1,2,5,7-tetrahydrofuro[3,4-b]pyridine-3-carboxamido)acetic acid] | 4770 | 8 | 587 | – | – | –
8 | O=C(O)CNC(=O)c1c(O)c2c(n(Cc3ccn(-c4ccccc4)n3)c1=O)COC2 [Example 22, 2-(4-hydroxy-2-oxo-1-((1-phenyl-1H-pyrazol-3-yl)methyl)-1,2,5,7-tetrahydrofuro[3,4-b]pyridine-3-carboxamido)acetic acid] | 816 | 11.8 | 66.6 | – | – | –
9 | N#Cc1ccc(-c2ccc(Cn3c4c(c(O)c(C(=O)NCC(=O)O)c3=O)COC4)cc2)cc1 [Example 24, 2-(1-((4′-cyano-[1,1′-biphenyl]-4-yl)methyl)-4-hydroxy-2-oxo-1,2,5,7-tetrahydrofuro[3,4-b]pyridine-3-carboxamido)acetic acid] | – | – | 30.4 | 642 | 13.7 | 1.5
10 | O=C(O)CNC(=O)c1c(O)c2c(n(Cc3ccc(Cl)cc3)c1=O)COC2 [Example 27, 2-(1-(4-chlorobenzyl)-4-hydroxy-2-oxo-1,2,5,7-tetrahydrofuro[3,4-b]pyridine-3-carboxamido)acetic acid] | 21500 | 551 | 39.6 | – | – | –
11 | O=C(O)CNC(=O)c1c(O)c2c(n(Cc3ccc(F)cc3F)c1=O)COC2 [Example 32, 2-(1-(2,4-difluorobenzyl)-4-hydroxy-2-oxo-1,2,5,7-tetrahydrofuro[3,4-b]pyridine-3-carboxamido)acetic acid] | 24800 | 492 | 52.8 | – | – | –
12 | O=C(O)CNC(=O)c1c(O)c2c(n(Cc3cc(F)c(F)cc3F)c1=O)COC2 [Example 41, 2-(4-hydroxy-2-oxo-1-(2,4,5-trifluorobenzyl)-1,2,5,7-tetrahydrofuro[3,4-b]pyridine-3-carboxamido)acetic acid] | 41400 | 476 | 87.3 | – | – | –
13 | Cc1cc(Cl)ccc1Cn1c2c(c(O)c(C(=O)NCC(=O)O)c1=O)COC2 [Example 42, 2-(1-(4-chloro-2-methylbenzyl)-4-hydroxy-2-oxo-1,2,5,7-tetrahydrofuro[3,4-b]pyridine-3-carboxamido)acetic acid] | – | – | 35.6 | 54200 | 1520 | 4.1
14 | O=C(O)CNC(=O)c1c(O)c2c(n(Cc3nc4ccccc4o3)c1=O)COC2 [Example 46, 2-(1-(benzo[d]oxazol-2-ylmethyl)-4-hydroxy-2-oxo-1,2,5,7-tetrahydrofuro[3,4-b]pyridine-3-carboxamido)acetic acid] | 2070 | 34.5 | 55 | – | – | –
15 | NC(=O)c1ccc(-c2ccc(Cn3c4c(c(O)c(C(=O)NCC(=O)O)c3=O)COC4)cc2)cc1 [Example 61, 2-(1-((4′-carbamoyl-[1,1′-biphenyl]-4-yl)methyl)-4-hydroxy-2-oxo-1,2,5,7-tetrahydrofuro[3,4-b]pyridine-3-carboxamido)acetic acid] | – | – | 4.89 | 25.8 | 5.28 | 1.1
16 | Cc1cc(C(=O)O)ccc1-c1ccc(Cn2c3c(c(O)c(C(=O)NCC(=O)O)c2=O)COC3)cc1 [Example 64, 4′-((3-((Carboxymethyl)carbamoyl)-4-hydroxy-2-oxofuro[3,4-b]pyridin-1(2H,5H,7H)-yl)methyl)-2-methyl-[1,1′-biphenyl]-4-carboxylic acid] | – | – | – | – | – | 1.2
17 | O=C(O)CNC(=O)c1c(O)c2c(n(Cc3ccc4[nH]cnc4c3)c1=O)COC2 [Example 65, 2-(1-((1H-Benzo[d]imidazol-5-yl)methyl)-4-hydroxy-2-oxo-1,2,5,7-tetrahydrofuro[3,4-b]pyridine-3-carboxamido)acetic acid] | – | – | – | – | – | 11.8
